Test results taken from US9845335B2, “Sofosbuvir in crystalline form and process for its preparation” (HC-PHARMA AG, priority 2014, dated 2017).

Experiments:
Type in all cases: physicochemical
[1] = Stability and hygroscopicity of the crystalline form; conditions: statement in words, no data
[2] = Powder properties of the crystalline form (bulk and tapped density, compressibility, Hausner ratio)
[3] = Particle size distribution (PSD)
[4] = product of Example 1 (from isobutyl methyl ketone)

## CC(C)OC(=O)[C@H](C)N[P@](=O)(OC[C@H]1O[C@@H](n2ccc(=O)[nH]c2=O)[C@](C)(F)[C@@H]1O)Oc1ccccc1 [Sofosbuvir Form α]
[1]
  Hygroscopicity: not hygroscopic
  Stability of the crystalline form: stable
[2]
  Bulk Density: 0.22 g/mL
  Compressibility index: 24.4
  Hausner ratio: 1.32
  Tapped Density: 0.29 g/mL
[3]; general characterisation of the form
  PSD: size of the 90% of the particles: 10 to 50 μm
[3]; [4]
  PSD d(0.1): 1.831 μm
  PSD d(0.5): 5.263 μm
  PSD d(0.9): 20.369 μm
